Reference: patent US20130143969A1 (THE OHIO STATE UNIVERSITY, priority 2010, published 2013)

Experiments:
in vivo = conditions: CD2F1, mouse, in vivo
Excerpt: Extracts of bio-matrices were subjected to HPLC mass spectrometric analysis.

[1] = Solubility of curcumin in different PEGs and temperatures; type: physicochemical
Method: The pharmaceutical compositions may be prepared by dissolving solid curcumin in an excipient. […] In one embodiment, the mixture is stirred at an elevated temperature until a homogenous solution is obtained. For example, the mixture may be heated to a temperature within the range from about 30° C. to about 150° C.; from about 50° C. to about 120° C.; from about 60° C. to about 100° C. […]

MV4-11 cells = test: Apoptosis analysis; type: cell-based; conditions: 10 μM curcumin
Method: Cell Cycle and Apoptosis Analysis: MV4-11, ML-1, HL-60 and K562 leukemia cell lines were cultured in RPMI medium (VWR International, Inc., West Chester, Pa.) supplemented with 10% fetal bovine serum (Invitrogen, Carlsbad, Calif.) and 1% (v/v) penicillin/streptomycin (Invitrogen Life Technologies; Carlsbad, Calif.) antibiotic solution at 37° C. in an incubator under 5% CO2 atmosphere. For the ex-vivo studies, mononuclear cells obtained from bone marrow (BM) of patient with AML were prepared by Ficoll-Hypaque (Nygaard) gradient centrifugation and cultured with serum-free expansion medium (SFEM) (StemCell technologies, Vancouver, BC) supplemented with GM-CSF (50 ng/ml), IL-3 (20 ng/ml), IL-6 (20 ng/ml) and SCF ([…]). […] The cell cycle and apoptosis of MV4-11 cells was analyzed on a BD FACS Calibur (Beckman Coulter, Fullerton, Calif.) according to the standard protocol provided by the manufacturer.

COc1cc(/C=C/C(=O)CC(=O)/C=C/c2ccc(O)c(OC)c2)ccc1O [curcumin]
concentration at 10 min (in vivo): 1620 ng/mL
concentration at 20 min (in vivo): 1620 ng/mL
concentration at 30 min (in vivo): 2450 ng/mL
concentration at 45 min (in vivo): 661 ng/mL
concentration at 60 min (in vivo): 448 ng/mL
concentration at 90 min (in vivo): 135 ng/mL
concentration at 120 min (in vivo): 231 ng/mL
concentration at 240 min (in vivo): 169 ng/mL
concentration at 480 min (in vivo): 58.3 ng/mL
amount of curcumin that can dissolve ([1]; in 1 mL PEG 400 at 100° C): about 200 mg
Final Conc. 100° C. ([1]; solubility in PEG 200, 100° C): 193.1 mg/mL
Final Conc. 100° C. ([1]; solubility in PEG 300, 100° C): 252.3 mg/mL
Final Conc. 60° C. ([1]; solubility in PEG 400, 60° C): 131.4 mg/mL
Final Conc. 100° C. ([1]; solubility in PEG 400, 100° C): 195 mg/mL
Final Conc. @ RT ([1]; solubility in PEG 400, RT): 42.7 mg/mL
Final Conc. 100° C. ([1]; solubility in PEG 500, 100° C): 218.9 mg/mL
Final Conc. 60° C. ([1]; solubility in PEG 600, 60° C): 136.0 mg/mL
Final Conc. 100° C. ([1]; solubility in PEG 600, 100° C): 241.8 mg/mL
Final Conc. @ RT ([1]; solubility in PEG 600, RT): 42.0 mg/mL
portion of apoptotic cells (MV4-11 cells): ~30%
